Test results: ChEMBL document CHEMBL5370659 (J Med Chem, 2023)
Activity calls are given as the source filed them. No cut-off for these calls is given here.

Legend:
[1] = tested on: Mus musculus; assay: Effect on total duration of immobility in C57BL/6N mouse at 10 mg/kg, po treated for 14 days by tail suspension test; format: functional, organism-based; details: time 14.0 day
[2] = tested on: Mus musculus; assay: Effect on C57BL/6N mouse assessed as brain serotonin turnover measuring 5-HIAA/5-HT ratio at 1.5 to 50 mg/kg, po bid treated for 6 to 7 days; format: functional, organism-based; details: dose 1.5-50 mg/kg, time 6-7 day
[3] = Half life in Sprague-Dawley rat at 20 mg/kg, po measured upto 1440 mins by LC-MS/MS analysis; format: ADME, organism-based; details: in vivo
[4] = tested on: Mus musculus; assay: Effect on time spent in central zone of C57BL/6N mouse at 100 mg/kg, po treated for 14 days by locomotor activity test; format: functional, organism-based; details: time 14.0 day
[5] = Inhibition of BCRP in human Caco-2 cells seeded in polyethylene membranes assessed as permeation in presence or absence of E3S measured for 2 hrs by LC-MS/MS analysis based transporter assay; format: cell-based
[6] = Initial drug concentration in Sprague-Dawley rat at 10 mg/kg, iv measured upto 1440 mins by LC-MS/MS analysis; format: ADME, organism-based; details: in vivo
[7] = target: Cytochrome P450 2C19 (Homo sapiens, UniProt P33261); assay: Inhibition of CYP2C19 in human liver microsome using S-mephenytoin as substrate measured upto 50 uM incubated for 10 mins followed by NADPH addition incubated for 10 mins by LC/MS/MS analysis; format: ADME; details: microsomes, 20 min
[8] = tested on: MC-38; assay: Antitumor activity against mouse MC-38 cells subcutaneously transplanted in C57BL/6N mouse assessed as reduction in AUC of tumor growth at 50 mg/kg, po bid measured on day 20 relative to control; format: functional; details: MC-38, 480 h, route sc, time 20 day
[9] = AUC (0 to infinitive) in Sprague-Dawley rat at 10 mg/kg, iv measured upto 1440 mins by LC-MS/MS analysis; format: ADME, organism-based; set-up: dose 10 mg/kg, time < 1440 min, route iv; details: in vivo
[10] = Plasma protein binding in rat; format: ADME, cell-free; details: read-out: PPB (converted)
[11] = Half life in Sprague-Dawley rat at 10 mg/kg, iv measured upto 1440 mins by LC-MS/MS analysis; format: ADME, organism-based; details: in vivo
[12] = target: T1, Tryptophan 5-hydroxylase 1 (Homo sapiens, UniProt P17752); assay: Inhibition of recombinant MBP-tagged full length human THP1 using L-Trp as substrate assessed as formation of 5-HTP by measuring fluorescent property
T1 sequence (P17752 whole entry): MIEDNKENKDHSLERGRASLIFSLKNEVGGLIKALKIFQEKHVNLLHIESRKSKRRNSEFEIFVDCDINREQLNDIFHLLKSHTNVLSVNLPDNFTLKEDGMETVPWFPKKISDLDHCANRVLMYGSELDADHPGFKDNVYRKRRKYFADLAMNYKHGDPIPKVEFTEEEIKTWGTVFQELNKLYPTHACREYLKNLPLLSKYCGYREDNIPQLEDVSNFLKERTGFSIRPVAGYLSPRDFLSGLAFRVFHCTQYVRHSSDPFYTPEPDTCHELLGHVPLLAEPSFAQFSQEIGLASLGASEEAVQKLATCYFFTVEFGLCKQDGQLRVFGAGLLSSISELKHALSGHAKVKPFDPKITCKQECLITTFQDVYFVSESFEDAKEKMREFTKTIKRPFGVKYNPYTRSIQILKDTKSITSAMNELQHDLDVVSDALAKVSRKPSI

[13] = AUC (0 to infinitive) in CD-1 (ICR) mouse at 50 mg/kg, po measured upto 1440 mins by LC-MS/MS analysis; format: ADME, organism-based; set-up: time < 1440 min, dose 50 mg/kg, route po; details: in vivo
[14] = Tmax in Sprague-Dawley rat at 50 mg/kg, po measured upto 1440 mins by LC-MS/MS analysis; format: ADME, organism-based; details: in vivo
[15] = AUMCExtra in Sprague-Dawley rat at 50 mg/kg, po measured upto 1440 mins by LC-MS/MS analysis; format: ADME, organism-based; details: in vivo, 24 h
[16] = Cytotoxicity against human serotonergic BON cells assessed as cell viability at 300 uM incubated for 72 hrs by WST-1 assay; format: toxicity, cell-based
[17] = Toxicity in C57BL/6N mouse subcutaneously transplanted with mouse MC-38 cells assessed as body weight change at 50 mg/kg, po bid measured on day 20; format: organism-based; details: in vivo, sc, 480 h, time 20 day
[18] = Cmax in CD-1 (ICR) mouse at 50 mg/kg, po measured upto 1440 mins by LC-MS/MS analysis; format: ADME, organism-based; set-up: dose 50 mg/kg, time < 1440 min, route po; details: in vivo
[19] = Tmax in CD-1 (ICR) mouse at 50 mg/kg, po measured upto 1440 mins by LC-MS/MS analysis; format: ADME, organism-based; details: in vivo
[20] = Cmax in Sprague-Dawley rat at 50 mg/kg, po measured upto 1440 mins by LC-MS/MS analysis; format: ADME, organism-based; set-up: time < 1440 min, dose 50 mg/kg, route po; details: in vivo
[21] = AUMCExtra in Sprague-Dawley rat at 20 mg/kg, po measured upto 1440 mins by LC-MS/MS analysis; format: ADME, organism-based; details: in vivo, 24 h
[22] = MRT (0 to last) in Sprague-Dawley rat at 50 mg/kg, po measured upto 1440 mins by LC-MS/MS analysis; format: ADME, organism-based; details: in vivo
[23] = Drug uptake in Sprague-Dawley rat lung at 50 mg/kg, po measured at 0.5 hrs by LC-MS/MS analysis; format: ADME, organism-based; details: read-out: Drug uptake
[24] = Drug uptake in CD-1 (ICR) mouse lung at 50 mg/kg measured 2 hrs by LC-MS/MS analysis; format: ADME, organism-based; details: read-out: Drug uptake
[25] = tested on: Mus musculus; assay: Effect on total travelled distance of C57BL/6N mouse at 100 mg/kg, po treated for 14 days by locomotor activity test; format: functional, organism-based; details: time 14.0 day
[26] = target: T1, Tryptophan 5-hydroxylase 1; assay: Inhibition of THP1 in human serotonergic BON cells assessed as reduced the intracellular serotonin levels incubated for 72 hrs; format: cell-based
[27] = Plasma concentration in Sprague-Dawley rat at 50 mg/kg, po measured at 0.5 hrs by LC-MS/MS analysis; format: ADME, organism-based
[28] = Mutagenicity in Salmonella typhimurium TA98 in presence or absence of rat liver S9 fraction by Ames test; format: toxicity; details: salmonella enterica subsp. enterica serovar typhimurium
[29] = Oral bioavailability in CD-1 (ICR) mouse at 50 mg/kg measured upto 1440 mins by LC-MS/MS analysis; format: ADME, organism-based; details: in vivo
[30] = MRT (0 to infinitive) in Sprague-Dawley rat at 50 mg/kg, po measured upto 1440 mins by LC-MS/MS analysis; format: ADME, organism-based; details: in vivo
[31] = Permeability across basal to apical side in MDCK-MDR1 cells at pH 6.5/7.4 measured at 5 uM by LC-MS/MS analysis; format: ADME, cell-based, Canis lupus familiaris; details: dog, MDCK-MDR1, pH 6.5
[32] = Tmax in Sprague-Dawley rat at 20 mg/kg, po measured upto 1440 mins by LC-MS/MS analysis; format: ADME, organism-based; details: in vivo
[33] = Mutagenicity in Salmonella typhimurium TA100 in presence or absence of rat liver S9 fraction by Ames test; format: toxicity; details: salmonella enterica subsp. enterica serovar typhimurium
[34] = Toxicity in C57BL/6N mouse assessed as behavioral changes at 1.5 to 50 mg/kg, po bid treated for 6 to 7 days; format: organism-based; details: in vivo, dose lower 1.5 mg/kg, time lower 6 day, dose upper 50 mg/kg, time upper 7 day
[35] = AUC (0 to last) in Sprague-Dawley rat at 20 mg/kg, po measured upto 1440 mins by LC-MS/MS analysis; format: ADME, organism-based; set-up: time < 1440 min, dose 20 mg/kg, route po; details: in vivo

Cytochrome P450 2C19, sequence (P33261 whole entry): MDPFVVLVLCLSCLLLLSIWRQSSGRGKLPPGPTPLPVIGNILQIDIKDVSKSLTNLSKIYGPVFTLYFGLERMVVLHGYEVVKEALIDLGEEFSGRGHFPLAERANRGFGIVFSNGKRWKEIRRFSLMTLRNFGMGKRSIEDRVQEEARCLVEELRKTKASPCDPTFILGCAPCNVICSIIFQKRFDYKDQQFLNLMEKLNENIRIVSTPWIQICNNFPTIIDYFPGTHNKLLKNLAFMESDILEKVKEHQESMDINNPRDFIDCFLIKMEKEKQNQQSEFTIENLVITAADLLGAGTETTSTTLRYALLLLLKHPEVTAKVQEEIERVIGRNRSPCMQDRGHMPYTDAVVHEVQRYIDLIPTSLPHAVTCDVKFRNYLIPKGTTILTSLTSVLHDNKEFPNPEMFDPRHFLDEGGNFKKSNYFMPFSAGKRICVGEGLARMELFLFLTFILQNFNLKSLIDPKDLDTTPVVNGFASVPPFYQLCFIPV

- half-life [3]: 4.48 h
- C0 at 24 h [6]: 16300 ng/mL
- inhibition (INH) [7]: Not Active
- AUC(0-inf) [9]: 5030 ng·h/mL
- fraction unbound [10]: 0.52
- half-life [11]: 3.39 h
- IC50 [12]: 77 nM
- AUC(0-inf) [13]: 8580 ng·h/mL
- Tmax [14]: 0.83 h
- AUMC [15]: 4.6%
- Cmax [18]: 6950 ng/mL
- Tmax [19]: 0.333 h
- Cmax [20]: 4100 ng/mL
- AUMC [21]: 8.44%
- MRT last at 24 h [22]: 2.63 h
- concentration at 0.5 h [23]: 3160 ng/g
- concentration at 2 h [24]: 168 ng/g
- IC50 [26]: 952 nM
- concentration at 0.5 h [27]: 5950 ng/mL
- bioavailability [29]: 41.3%
- MRT inf [30]: 2.75 h
- Papp B→A at 5 µM [31]: 15 ×10⁻⁶ cm/s
- Tmax [32]: 0.42 h
- AUC(0-t) at 24 h [35]: 3300 ng·h/mL
Compound: CCn1c(=O)[nH]c(=O)c2c1nc(Cc1cn3cc(C)sc3n1)n2CC1COC1
- Activity [1]: inactive
- Activity [2]: inactive
- Activity [4]: inactive
- IC50 [5]: > 100000 nM
- inhibition in vivo at 50 mg/kg [8]: 35%
- Activity [16]: Non-Toxic
- Activity [17]: Non-Toxic
- Activity [25]: inactive
- Activity [28]: Non-Toxic
- Activity [33]: Non-Toxic
- Activity [34]: Non-Toxic
